Read-outs that look alike come from different tables or passages of the source.
How the values were obtained:
[1] = In vitro cytotoxicity evaluation (MTT); type: cell-based; settings: human
Description: Triplicate assays were performed for each sample. Each plate-well was then microscope-examined for possible precipitate formation before the medium was aspirated from the wells. 100 μL of MTT (3-(4,5-dimethyl-2-thiazolyl)-2,5-diphenyl-2H-tetrazolium bromide) solution (0.5 mg/mL in medium without FBS) were then added to each well. […] After this time, the MTT solution was removed and DMSO (100 μL) was added to dissolve the resulting blue formazan crystals. Plates were shaken vigorously (700 rpm) for 10 min. The absorbance was measured at 570 nm with 630 nm as reference wavelength using a BIO-TEK ELx808 Absorbance Microplate Reader (LabX, Midland, ON, Canada). DMSO was used as blank and doxorubicin (purchased from Sigma Aldrich) as positive control. Cell viability was calculated as percentage of control (cells incubated without compound). […] CC50 values represent the mean value calculated from three independent experiments.

[2] = test system: K1 P. falciparum strain; test: In vitro antiplasmodial evaluation (SYBR Green I fluorescence-based method); type: cell-based; settings: for SI (selectivity index = CC50/EC50): CC50 HepG2 / EC50 PfK1; for EC50: multi-resistant K1 P. falciparum strain, 72 h incubation, read-out: PfK1 EC50
Description: It was maintained in continuous culture as described previously by Trager and Jensen. […] Parasitemia was maintained daily at between 1 and 3%. The P. falciparum drug susceptibility test was carried out by comparing quantities of DNA in treated and control cultures of parasite in human erythrocytes according to an SYBR Green I fluorescence-based method using a 96-well fluorescence plate reader. […] Duplicate assays were performed for each sample. After incubation, plates were frozen at -20 °C for 24 h. […] Fifteen μL of each sample were transferred to 96-well flat bottom non-sterile black plates (Greiner Bio-one) already containing 15 μL of the SYBR Green I lysis buffer (2X SYBR Green I, 20 mM Tris base pH 7.5, 20 mM EDTA, 0.008% w/v saponin, 0.08% w/v Triton X-100).

[3] = Solubility of the tested molecule in the culture medium; type: physicochemical; settings: culture medium of the cytotoxicity test
Description: HepG2 cell line was maintained at 37 °C, 5% CO2, at 90% humidity in […] supplemented with 10% fetal bovine serum, 1% L-glutamine (200 mM) and penicillin (100 U/mL)/streptomycin (100 µg/mL) (complete RPMI medium). The cytotoxicity of the tested molecules on the HepG2 (hepatocarcinoma cell line purchased from ATCC, ref HB-8065) cell line was assessed according to the method of Mosmann with slight modifications. Briefly, 5.10^3 cells in 100 µL of complete medium were inoculated into each well of 96-well plates and incubated at 37 °C in humidified 5% CO2. After 24 h incubation, 100 μL of medium with various product concentrations dissolved in DMSO (final concentration less than 0.5% v/v) were added and the plates were incubated for 72 h at 37 °C. Triplicate assays were performed for each sample. Each plate-well was then microscope-examined for possible precipitate formation before the medium was aspirated from the wells. 100 μL of MTT (3-(4,5-dimethyl-2-thiazolyl)-2,5-diphenyl-2H-tetrazolium bromide) solution (0.5 mg/mL in medium without FBS) were then added to each well. Cells were incubated for 2 h at 37 °C. After this time, the MTT solution was removed and DMSO (100 μL) was added to dissolve the resulting blue formazan crystals. Plates were shaken vigorously (700 rpm) for 10 min. The absorbance was measured at 570 nm with 630 nm as reference wavelength using a BIO-TEK ELx808 Absorbance Microplate Reader (LabX, Midland, ON, Canada). DMSO was used as blank and doxorubicin (purchased from Sigma Aldrich) as positive control. Cell viability was calculated as percentage of control (cells incubated without compound). […] CC50 values represent the mean value calculated from three independent experiments.

[4] = test system: HepG2 cell line; set-up: method as in earlier work; settings: previously described compounds; ref 9 (A), 10 (B), 11 (C), 12 (series D); read-out: Cytotoxicity CC50 HepG2; cited from earlier work
[5] = test system: K1 P. falciparum strain; settings: previously described compounds; ref 9 (A), 10 (B), 11 (C), 12 (series D); read-out: Antiplasmodial activity EC50 P. falciparum K1; cited from earlier work
[6] = test system: W2 P. falciparum; set-up: method as in PMID 21741131; settings: W2 strain; cited from earlier work
[7] = Plasmodium falciparum, K1, 72 h

## O=C(Nc1nc(C(Cl)(Cl)Cl)nc2ccccc12)c1ccccn1 [Molecule 17, N-(2-Trichloromethylquinazolin-4-yl)picolinamide]
other
  melting point: 214 °C
[1]
  CC50 at 72 h: > 7.8 µM
[2]
  SI (selectivity index = CC50/EC50): >0.5
[2]; [7]
  EC50: 14.5 µM
[3]
  solubility (in words): lack of solubility

## CC(=O)Nc1nc(C(Cl)(Cl)Cl)nc2ccccc12 [Molecule 20, N-(2-Trichloromethylquinazolin-4-yl)acetamide]
other
  melting point: 217 °C
[1]
  CC50 at 72 h: 31.2 µM
[2]; [7]
  EC50: > 10 µM
[3]
  solubility (in words): lack of solubility

## CCC(=O)Nc1nc(C(Cl)(Cl)Cl)nc2ccccc12 [Molecule 21, N-(2-Trichloromethylquinazolin-4-yl)propionamide]
other
  melting point: 171 °C
[1]
  CC50 at 72 h: > 62.5 µM
[2]
  SI (selectivity index = CC50/EC50): >12.8
[2]; [7]
  EC50: 4.9 µM
[3]
  solubility (in words): lack of solubility

## O=C(Nc1nc(C(Cl)(Cl)Cl)nc2ccccc12)c1ccccc1F [Molecule 11, 2-Fluoro-N-(2-Trichloromethylquinazolin-4-yl)benzamide]
[1]
  CC50 at 72 h: > 15.6 µM
[2]; [7]
  EC50: 5.23 µM
[3]
  solubility (in words): lack of solubility

## CCCCC(=O)Nc1nc(C(Cl)(Cl)Cl)nc2ccccc12 [Molecule 24, N-(2-Trichloromethylquinazolin-4-yl)pentanamide]
other
  melting point: 136 °C
[1]
  CC50 at 72 h: 42.3 µM
[2]; [7]
  EC50: ≤ 2 µM
[2]
  EC50: 1.6 µM
[3]
  solubility (in words): lack of solubility

## Fc1ccc(-c2nc(C(Cl)(Cl)Cl)nc3ccccc23)cc1 [A, 4-(4′-fluorophenyl)-2-trichloromethylquinazoline]
[4]
  CC50: > 125 µM
[5]
  EC50: 2.5 µM

## O=C(Nc1nc(C(Cl)(Cl)Cl)nc2ccccc12)c1ccccc1[N+](=O)[O-] [Molecule 8, 2-Nitro-N-(2-Trichloromethylquinazolin-4-yl)benzamide]
other
  melting point: 257 °C
[1]
  CC50 at 72 h: > 15.6 µM
[2]
  SI (selectivity index = CC50/EC50): >5.2
[2]; [7]
  EC50: 3 µM
[3]
  solubility (in words): lack of solubility

## O=[N+]([O-])c1ccc(COc2nc(C(Cl)(Cl)Cl)nc3ccccc23)cc1 [C]
[4]
  CC50: 19.4 µM
[5]
  EC50: 1.8 µM

## Oc1nc(C(Cl)(Cl)Cl)nc2ccccc12 [2-(trichloromethyl)quinazolin-4-ol]
[6]
  activity against W2 P. falciparum (in words): not active

## O=C(Nc1nc(C(Cl)(Cl)Cl)nc2ccccc12)c1ccccc1 [Molecule 5, N-(2-Trichloromethylquinazolin-4-yl)benzamide]
other
  melting point: 183 °C
[1]
  CC50 at 72 h: 24.2 µM
[2]
  SI (selectivity index = CC50/EC50): 13.8
[2]; [7]
  EC50: 1.76 µM

## COc1nc(C(Cl)(Cl)Cl)nc2ccccc12 [Molecule 26, 4-Methoxy-2-Trichloromethylquinazoline]
other
  melting point: 83 °C
[1]
  CC50 at 72 h: 39.3 µM
[2]
  SI (selectivity index = CC50/EC50): 5.5
[2]; [7]
  EC50: 7.1 µM

## OCCOc1nc(C(Cl)(Cl)Cl)nc2ccccc12 [Molecule 34, 2-(2-Trichloromethylquinazolin-4-yloxy)ethanol]
other
  melting point: 93 °C
[1]
  CC50 at 72 h: 7.9 µM
[2]
  SI (selectivity index = CC50/EC50): 0.8
[2]; [7]
  EC50: 10 µM

## CC(C)Oc1nc(C(Cl)(Cl)Cl)nc2ccccc12 [Molecule 30, 4-Isopropoxy-2-Trichloromethylquinazoline]
other
  melting point: 210 °C
[1]
  CC50 at 72 h: 102 µM
[2]
  SI (selectivity index = CC50/EC50): <10
[2]; K1 strain
  activity against P. falciparum (in words): inactive
[2]; [7]
  EC50: > 10 µM

## ClC(Cl)(Cl)c1nc(OCCBr)c2ccccc2n1 [Molecule 40, 4-(2-Bromoethoxy)-2-Trichloromethylquinazoline]
other
  melting point: 100 °C
[1]
  CC50 at 72 h: > 62.5 µM
[2]
  SI (selectivity index = CC50/EC50): >28
[2]; [7]
  EC50: 2.2 µM

## CC(C)C(=O)Nc1nc(C(Cl)(Cl)Cl)nc2ccccc12 [Molecule 22, N-(2-Trichloromethylquinazolin-4-yl)isobutyramide]
other
  melting point: 161 °C
[1]
  CC50 at 72 h: > 31.2 µM
[2]
  SI (selectivity index = CC50/EC50): >9.0
[2]; [7]
  EC50: 3.5 µM

## O=C(Nc1nc(C(Cl)(Cl)Cl)nc2ccccc12)c1cccnc1 [Molecule 18, N-(2-Trichloromethylquinazolin-4-yl)nicotinamide]
other
  melting point: 208 °C
[1]
  CC50 at 72 h: 72.9 µM
[2]
  SI (selectivity index = CC50/EC50): 18.7
[2]; [7]
  EC50: 3.9 µM

## O=C(Nc1nc(C(Cl)(Cl)Cl)nc2ccccc12)C1CCCCC1 [Molecule 25, N-(2-Trichloromethylquinazolin-4-yl)cyclohexanecarboxamide]
other
  melting point: 214 °C
[1]
  CC50 at 72 h: > 15.6 µM
[2]
  SI (selectivity index = CC50/EC50): >6.5
[2]; [7]
  EC50: 2.4 µM

## CC(C)(C)C(=O)Nc1nc(C(Cl)(Cl)Cl)nc2ccccc12 [Molecule 23, N-(2-Trichloromethylquinazolin-4-yl)pivalamide]
other
  melting point: 157 °C
[1]
  CC50 at 72 h: 34.9 µM
[2]
  SI (selectivity index = CC50/EC50): 19.4
[2]; [7]
  EC50: 1.8 µM
